# Reference: patent publication US10174016B2 (BAYER AKTIENGESELLSCHAFT, priority 2014, dated 2019)
# pIC50: −log10 of the molar value. Read-outs that look alike come from different tables or passages of the source.
# Assays:
# human P2X2/3 receptor = human P2X2/3 receptor (Homo sapiens (Human), UniProt P56373+Q9UBL9); test: Intracellular calcium measurement (FLIPR, Fluo-4) of antagonist activity at human P2X2/3 receptors; format: cell-based; conditions: human P2X2/3, FLIPR calcium assay, agonist α,β-Me-ATP; read-out: hP2X2/3 IC50
# Procedure, shortened: (§1)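 Antagonism quantified from peak calcium fluorescence (Fluo-4, FLIPR, 90 sec read) evoked by EC80 α,β-Me-ATP, after a 30 min, 37° C. compound pretreatment in 1% DMSO. Human P2X3- or P2X2/3-expressing cells used; triplicate means fitted for IC50, percent maximal inhibition and Hill coefficient.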
# human P2X3 receptor = human P2X3 receptor (Homo sapiens (Human), UniProt P56373); test: Intracellular calcium measurement (FLIPR, Fluo-4) of antagonist activity at human P2X3 receptors; format: cell-based; conditions: read-out: hP2X3 IC50
# Procedure, shortened: as §1
# [1] = human P2X3, FLIPR calcium assay, agonist α,β-Me-ATP
# human P2X3 receptor, sequence (P56373 whole entry): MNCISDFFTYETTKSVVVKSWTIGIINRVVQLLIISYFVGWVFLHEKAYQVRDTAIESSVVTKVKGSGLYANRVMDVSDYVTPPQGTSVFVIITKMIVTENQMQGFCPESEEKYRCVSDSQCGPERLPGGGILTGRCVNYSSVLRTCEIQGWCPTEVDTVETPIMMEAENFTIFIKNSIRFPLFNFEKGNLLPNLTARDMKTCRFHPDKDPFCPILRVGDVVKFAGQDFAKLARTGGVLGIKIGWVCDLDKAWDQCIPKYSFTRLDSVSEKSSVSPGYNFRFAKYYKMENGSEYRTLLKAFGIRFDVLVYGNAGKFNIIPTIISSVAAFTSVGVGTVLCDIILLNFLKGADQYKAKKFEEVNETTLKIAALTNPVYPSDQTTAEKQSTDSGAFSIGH
# human P2X2/3 receptor, sequence (P56373 whole entry): as above
# human P2X2/3 receptor, sequence (Q9UBL9 whole entry): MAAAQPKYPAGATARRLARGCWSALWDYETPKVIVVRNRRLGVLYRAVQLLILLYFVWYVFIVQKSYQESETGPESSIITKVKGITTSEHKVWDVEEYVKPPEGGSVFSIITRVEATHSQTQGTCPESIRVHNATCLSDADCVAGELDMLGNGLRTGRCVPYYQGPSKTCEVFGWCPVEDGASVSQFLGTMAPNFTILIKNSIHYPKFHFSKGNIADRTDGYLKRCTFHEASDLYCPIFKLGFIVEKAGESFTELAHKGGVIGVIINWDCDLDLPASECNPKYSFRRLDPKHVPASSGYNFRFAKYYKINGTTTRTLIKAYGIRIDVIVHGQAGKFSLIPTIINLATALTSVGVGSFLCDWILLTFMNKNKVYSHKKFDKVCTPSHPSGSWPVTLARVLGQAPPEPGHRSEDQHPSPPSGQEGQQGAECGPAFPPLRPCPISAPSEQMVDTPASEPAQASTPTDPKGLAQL
pIC50 (human P2X3 receptor; [1]),SMILES,pIC50 (human P2X2/3 receptor),pIC50 (human P2X3 receptor)
6.60,"Cc1ccc([C@@H](C)NC(=O)c2cc(O[C@H]3CCOC3)cc(-c3ncc(C(C)C)s3)c2)nn1 [Example 255, N-[(1R)-1-(6-methylpyridazin-3-yl)ethyl]-3-[5-(propan-2-yl)-1,3-thiazol-2-yl]-5-[(3S)-tetrahydrofuran-3-yloxy]benzamide]",6.35,–
7.33,"CC(C)c1cnc(-c2cc(O[C@H]3CCOC3)cc(C(=O)N[C@H](C)c3cnc(C(F)(F)F)nc3)c2)s1 [Example 257, 3-[5-(propan-2-yl)-1,3-thiazol-2-yl]-5-[(3S)-tetrahydrofuran-3-yloxy]-N-{(1R)-1-[2-(trifluoromethyl)pyrimidin-5-yl]ethyl}benzamide]",6.49,–
7.35,"Cc1ccc([C@@H](C)NC(=O)c2cc(OC[C@@H]3CCOC3)cc(-c3ncc(C4CCC4)s3)c2)nn1 [Example 261, 3-(5-cyclobutyl-1,3-thiazol-2-yl)-N-[(1R)-1-(6-methylpyridazin-3-yl)ethyl]-5-[(3R)-tetrahydrofuran-3-ylmethoxy]benzamide]",6.50,–
7.48,"C[C@@H](NC(=O)c1cc(OC[C@@H]2CCOC2)cc(-c2ncc(C3CCC3)s2)c1)c1cnc(C(F)(F)F)nc1 [Example 263, 3-(5-cyclobutyl-1,3-thiazol-2-yl)-5-[(3R)-tetrahydrofuran-3-ylmethoxy]-N-{(1R)-1-[2-(trifluoromethyl)pyrimidin-5-yl]ethyl}benzamide]",6.77,–
7.09,"Cc1ccc([C@@H](C)NC(=O)c2cc(OC[C@@H]3CCOC3)cc(-c3ncc(C(C)C)s3)c2)nn1 [Example 264, N-[(1R)-1-(6-methylpyridazin-3-yl)ethyl]-3-[5-(propan-2-yl)-1,3-thiazol-2-yl]-5-[(3R)-tetrahydrofuran-3-ylmethoxy]benzamide]",6.28,–
–,"CCc1cnc(-c2cc(OC[C@H]3CCCO3)cc(C(=O)N[C@H](C)c3cnc(C)cn3)c2)s1 [Example 268, 3-(5-ethyl-1,3-thiazol-2-yl)-N-[(1R)-1-(5-methylpyrazin-2-yl)ethyl]-5-[(2R)-tetrahydrofuran-2-ylmethoxy]benzamide]",6.41,7.85
7.60,"Cc1ccc([C@@H](C)NC(=O)c2cc(OC[C@H]3CCCO3)cc(-c3ncc(C4CCC4)s3)c2)nn1 [Example 270, 3-(5-cyclobutyl-1,3-thiazol-2-yl)-N-[(1R)-1-(6-methylpyridazin-3-yl)ethyl]-5-[(2R)-tetrahydrofuran-2-ylmethoxy]benzamide]",7.00,–
–,"C[C@@H](NC(=O)c1cc(OC[C@H]2CCCO2)cc(-c2ncc(C3CCC3)s2)c1)c1cnc(C(F)(F)F)nc1 [Example 272, 3-(5-cyclobutyl-1,3-thiazol-2-yl)-5-[(2R)-tetrahydrofuran-2-ylmethoxy]-N-{(1R)-1-[2-(trifluoromethyl)pyrimidin-5-yl]ethyl}benzamide]",6.89,7.72
–,"Cc1ccc([C@@H](C)NC(=O)c2cc(OC[C@H]3CCCO3)cc(-c3ncc(C(C)C)s3)c2)nn1 [Example 273, N-[(1R)-1-(6-methylpyridazin-3-yl)ethyl]-3-[5-(propan-2-yl)-1,3-thiazol-2-yl]-5-[(2R)-tetrahydrofuran-2-ylmethoxy]benzamide]",6.60,7.55
–,"CC(C)c1cnc(-c2cc(OC[C@H]3CCCO3)cc(C(=O)N[C@H](C)c3cnc(C(F)(F)F)nc3)c2)s1 [Example 275, 3-[5-(propan-2-yl)-1,3-thiazol-2-yl]-5-[(2R)-tetrahydrofuran-2-ylmethoxy]-N-{(1R)-1-[2-(trifluoromethyl)pyrimidin-5-yl]ethyl}benzamide]",6.72,7.68
6.94,"Cc1ccc([C@@H](C)NC(=O)c2cc(OC[C@H]3CCOC3)cc(-c3ncc(C(C)C)s3)c2)nn1 [Example 279, N-[(1R)-1-(6-methylpyridazin-3-yl)ethyl]-3-[5-(propan-2-yl)-1,3-thiazol-2-yl]-5-[(3S)-tetrahydrofuran-3-ylmethoxy]benzamide]",6.02,–
–,"CC(C)c1cnc(-c2cc(OC[C@H]3CCOC3)cc(C(=O)N[C@H](C)c3cnc(C(F)(F)F)nc3)c2)s1 [Example 281, 3-[5-(propan-2-yl)-1,3-thiazol-2-yl]-5-[(3S)-tetrahydrofuran-3-ylmethoxy]-N-{(1R)-1-[2-(trifluoromethyl)pyrimidin-5-yl]ethyl}benzamide]",6.70,7.59
–,"CCc1cnc(-c2cc(OC[C@@H]3CCCO3)cc(C(=O)N[C@H](C)c3cnc(C)cn3)c2)s1 [Example 283, 3-(5-ethyl-1,3-thiazol-2-yl)-N-[(1R)-1-(5-methylpyrazin-2-yl)ethyl]-5-[(2S)-tetrahydrofuran-2-ylmethoxy]benzamide]",6.42,8.00
8.40,"CCc1cnc(-c2cc(OC[C@@H]3CCCO3)cc(C(=O)N[C@H](C)c3cnc(C(F)(F)F)nc3)c2)s1 [Example 284, 3-(5-ethyl-1,3-thiazol-2-yl)-5-[(2S)-tetrahydrofuran-2-ylmethoxy]-N-{(1R)-1-[2-(trifluoromethyl)pyrimidin-5-yl]ethyl}benzamide]",7.24,–

SMILES,pIC50 (human P2X3 receptor; [1]),pIC50 (human P2X2/3 receptor),pIC50 (human P2X3 receptor)
"CCc1cnc(-c2cc(OC[C@@H]3CCOC3)cc(C(=O)N[C@H](C)c3cnc(C)cn3)c2)s1 [Example 259, 3-(5-ethyl-1,3-thiazol-2-yl)-N-[(1R)-1-(5-methylpyrazin-2-yl)ethyl]-5-[(3R)-tetrahydrofuran-3-ylmethoxy]benzamide]",8.00,6.99,–
"CCc1cnc(-c2cc(OC[C@@H]3CCOC3)cc(C(=O)N[C@H](C)c3cnc(C(F)(F)F)nc3)c2)s1 [Example 260, 3-(5-ethyl-1,3-thiazol-2-yl)-5-[(3R)-tetrahydrofuran-3-ylmethoxy]-N-{(1R)-1-[2-(trifluoromethyl)pyrimidin-5-yl]ethyl}benzamide]",8.70,7.85,–
"CC(C)c1cnc(-c2cc(OC[C@@H]3CCOC3)cc(C(=O)N[C@H](C)c3cnc(C(F)(F)F)nc3)c2)s1 [Example 266, 3-[5-(propan-2-yl)-1,3-thiazol-2-yl]-5-[(3R)-tetrahydrofuran-3-ylmethoxy]-N-{(1R)-1-[2-(trifluoromethyl)pyrimidin-5-yl]ethyl}benzamide]",7.39,6.44,–
"CCc1cnc(-c2cc(OC[C@H]3CCCO3)cc(C(=O)N[C@H](C)c3cnc(C(F)(F)F)nc3)c2)s1 [Example 269, 3-(5-ethyl-1,3-thiazol-2-yl)-5-[(2R)-tetrahydrofuran-2-ylmethoxy]-N-{(1R)-1-[2-(trifluoromethyl)pyrimidin-5-yl]ethyl}benzamide]",8.70,7.46,–
"CCc1cnc(-c2cc(OC[C@H]3CCOC3)cc(C(=O)N[C@H](C)c3cnc(C)cn3)c2)s1 [Example 277, 3-(5-ethyl-1,3-thiazol-2-yl)-N-[(1R)-1-(5-methylpyrazin-2-yl)ethyl]-5-[(3S)-tetrahydrofuran-3-ylmethoxy]benzamide]",8.22,7.02,–
"CCc1cnc(-c2cc(OC[C@H]3CCOC3)cc(C(=O)N[C@H](C)c3cnc(C(F)(F)F)nc3)c2)s1 [Example 278, 3-(5-ethyl-1,3-thiazol-2-yl)-5-[(3S)-tetrahydrofuran-3-ylmethoxy]-N-{(1R)-1-[2-(trifluoromethyl)pyrimidin-5-yl]ethyl}benzamide]",8.70,7.64,–
